What was measured:
[1] = tested on: oocytes injected with nuclear domains of round spermatids (ROSI); assay: Paternal genome DNA methylation, spermatid injection (ROSI); type: cell-based, mouse; details: 500 nM TSA
Experimental: The oocytes injected with the nuclear domains of round spermatids obtained by ROSI were cultured for 20 hours in the presence of 20 ng/ml of demecolcine in a medium containing 10 μM 5-azacytidine (5-aza) or 500 nM TSA as an anti-methylation agent. Similarly, injection of mature sperms was carried out (ICSI (intracytoplasmic sperm injection)). Specifically, heads of sperms were separated from the tails by applying pulses to the head-tail junctions by means of a piezo-driven pipette (PrimeTech), and injected into oocytes. The oocytes were not subjected to activation in this case.
The cultured oocytes injected with nuclei were fixed in PBS containing 4% paraformaldehyde at 4° C. overnight, washed in PBS containing 0.1% polyvinyl alcohol (PVA), and blocked in PBS containing 3% bovine serum albumin (BSA) and 0.2% Triton X-100 at 4° C. overnight. Subsequent steps were carried out at room temperature. The fixed oocytes injected with nuclei were permeabilized by treating with 0.2% Triton X-100 in PBS at room temperature. The oocytes were then treated with 2N HCl at room temperature for 50 minutes, neutralized in 100 mM Tris-HCl buffer (pH 8.0) (Non-patent Document 15), and extensively washed with PBS containing 1% BSA.
Next, incubation. with an anti-5-methylcytidine antibody (Eurogentec) in PBS containing 0.1% PVA was carried out for 2 to 3 hours. After extensively being washed, oocytes were stained with Alexa Flour-488 secondary antibody (Molecular Probes), stained with 5 μg/ml 4′,6′-diamidino-2-phenylindole (DAPI) for 30 minutes, and mounted using Vectashield (Vector Laboratory). The specimens were observed using Olympus BX51 microscope (Olympus). All images were captured with DP70 Olympus digital camera using Olympus Analysis software to apply colors to DAPI-stained DNA and merged images.
For quantitative analysis of pronuclear DNA methylation levels, fluorescence images were subjected to densitometric analysis using the program Image-J from the National Institute of Health (http://rsb.info.nih.gov/ij/). For each pronucleus, the relative intensity of methylation of the paternal genome was calculated as a percentage of the fluorescence intensity of the maternal genome. In Table 3, data with (b) and without (a) anti-methylation agent were statistically analyzed by Scheffe tests for multiple mean comparisons using the statistical program SPSS version 12.0 (SPSS Inc.). All percentile data were subjected to arcsine transformation prior to the statistical analysis.

[2] = tested on: bovine reconstructed embryos; assay: Early embryonic development of bovine reconstructed embryos; type: cell-based; details: for Number of cleaved embryos / Cleavage rate (cleaved embryos to cultured embryos): 48 hours postactivation; for Number of embryos at the blastocyst stage: 168 hours postactivation
Experimental: Bovine ovaries collected from sacrificed cows at a local slaughterhouse were stored in physiological saline at 25° C. and transported to the laboratory within 6 to 8 hours after slaughter. Bovine oocytes were harvested by aspiration of follicular fluids from follicles with diameters of 2 to 5 mm on the surfaces of bovine ovaries using 21G injection needles (Terumo, Tokyo, Japan) and 10-ml syringes (Terumo). Only oocyte-cumulus cell complexes to which 2 to 4 layers of cumulus cells were attached were selected and collected from the harvested follicular fluids. The collected oocyte-cumulus cell complexes were introduced into drops of 50 μl maturation medium under mineral oil (Sigma, USA) and cultured for 21 hours at 39° C. under 5% CO2 and 95% air at saturation humidity. The maturation medium was prepared by adding 0.02 AU/ml of follicle-stimulating hormone (FSH, Antrin, Kawasaki Seiyaku, Kanagawa, Japan) and 1 μg/ml estradiol 17-β (Sigma) to 25 mM HEPES buffered TCM-199 (Earle's salts, Gibco, m-TCM199E) supplemented with 5% (v/v) new born calf serum (NBCS, Gibco, N.Y., USA) and 25 μg/ml of gentamicin solution (Sigma).
The oocyte-cumulus cell complexes matured for 21 hours were allowed to stand for 5 minutes in a solution containing 5% NBCS and 25 μg/ml gentamicin solution (Sigma) in 25 mM HEPES-buffered TCM-199 (Hank's salts, Gibco, m-TCM199H) containing 0.25% (w/v) hyaluronidase (Sigma). Then, the cumulus cells attached around the oocytes were fully removed by pipetting.
The oocytes from which the cumulus cells had been removed were transferred to m-TCM119H and only oocytes with the first polar bodies had been emitted were selected under an inverted microscope. Zonae pellucidae above each first polar bodies were incised using a fine glass needle for removing nuclei from the oocytes, and the oocytes were transferred to m-TCM119H supplemented with 5 μg/ml cytochalacin B (Sigma) and allowed to stand for 15 minutes. Each oocyte was held from the upside using the glass needle used for incising zona pellucida, and enucleation was carried out by removing the first polar body and the oocyte cytoplasm neighboring the first polar body corresponding to about 10 to 20% of the oocyte cytoplasm volume from the zona pellucida incision site. The removed oocyte cytoplasm was transferred to m-TCM199E containing 20 μg/ml of Hoechst 33342 (Sigma) and stained at 39° C. under 5% CO2 and 95% air at saturated humidity for 30 minutes, and the enucleation was confirmed by judging the presence of nucleus in the enucleated oocyte cytoplasm under UV irradiation.
Fibroblasts derived from an auricle of Japanese black cattle calves were used as donor cells for nuclear transfer. The donor cells were cultured to 80% confluency in Dulbecco's modified Eagle medium (DMEM, Nissui, Tokyo, Japan) supplemented with 10% (v/v) fetal bovine serum (FBS, Funakoshi, Tokyo, Japan). The culture medium was then exchanged for DMEM supplemented with 0.4% FBS, and the cells were cultured under serum-starvation conditions for 7 days. The cells cultured under serum-starvation conditions were isolated from the culture dishes using a 0.25% (w/v) solution of trypsin (Sigma) containing 0.04% (w/v) disodium dihydrogen ethylenediaminetetraacetic acid (EDTA, Nacalai Tesque, Kyoto, Japan). The cells were harvested by centrifugation in a centrifuge tube, and suspended in a phosphate buffered saline (PBS, Gibco) (−) solution containing 10% (w/v) polyvinylpyrrolidone (PVP, Nacalai Tesque). The isolated cells were aspirated into a micro-glass pipette for cell introduction, and introduced from the zona pellucida incision sites into the perivitelline spaces of the recipient enucleated oocytes. […]

[3] = TSA in the culture medium, 5-500 nM

CC(/C=C/C(=O)NO)=C\[C@@H](C)C(=O)c1ccc(N(C)C)cc1 [TSA, trichostatin A]
majority of the methylation of the paternal genome, response to TSA treatment [1]: sensitive | methylation of the maternal genome, response to TSA treatment [1]: resistant | methylation of DNA in the pericentromeric region, response to TSA ([1]; region with high methylation of histone H3 Lys9): resistant | Ratio of methylation level of paternal genome to maternal genome (%) ([1]; Spermatid (ROSI), 20 hours): 42.5^b % | Cell number ± SEM of blastocysts ([2]; TSA 5 nM for 48 hours): 89 ± 6 | Number of cleaved embryos ([2]; TSA 5 nM for 48 hours, 106 cultured embryos): 85 | Cleavage rate (cleaved embryos to cultured embryos) ([2]; TSA 5 nM for 48 hours): 80% | Number of embryos at the blastocyst stage ([2]; TSA 5 nM for 48 hours): 28 | Cell number ± SEM of blastocysts ([2]; TSA 50 nM for 48 hours): 83 ± 6 | Number of cleaved embryos ([2]; TSA 50 nM for 48 hours, 97 cultured embryos): 73 | Cleavage rate (cleaved embryos to cultured embryos) ([2]; TSA 50 nM for 48 hours): 75% | Number of embryos at the blastocyst stage ([2]; TSA 50 nM for 48 hours): 29 | Cell number ± SEM of blastocysts ([2]; TSA 500 nM for 48 hours): 92 ± 8 | Number of cleaved embryos ([2]; TSA 500 nM for 48 hours, 97 cultured embryos): 73 | Cleavage rate (cleaved embryos to cultured embryos) ([2]; TSA 500 nM for 48 hours): 75% | Number of embryos at the blastocyst stage ([2]; TSA 500 nM for 48 hours): 5 | increase in blastocyst development rate ([2]; TSA at a certain concentration for a certain period of time): about 2 fold | influence on cell number of blastocysts [2, 3]: did not influence | influence on cleavage rate [2, 3]: did not influence

— patent publication US20090055945A1, “Method for Producing Nuclear-Transplanted Egg” (priority 2005, published 2009)
